{
  "source": "patent US9867795B2",
  "about": "“Nitrated lipids and methods of making and using thereof” (The UAB Research Foundation, priority 2004, dated 2018)",
  "key": {"3T3-L1 adipocytes": {"system": "3T3-L1 adipocytes", "assay": "[^3H]-2-Deoxy-D-glucose uptake assay in differentiated 3T3-L1 adipocytes", "format": "cell-based", "conditions": "GW9662 added 1 h before nitrated lipids or Rosiglitazone", "procedure": "[^3H]-2-Deoxy-D-glucose Uptake Assay in Differentiated 3T3-L1 Adipocyte. [^3H]-2-Deoxy-D-glucose uptake assay as previously described (19) 3T3-L1 preadipocytes were grown in 24-well tissue culture plates, 2-day postconfluent preadipocytes were treated by 10 μg/ml insulin (Sigma), 1 μM dexamethasone (Sigma), and 0.5 mM 3-isobutyl-1-methylxanthine (Sigma) in DMEM containing 10% FBS for two days, then cells were kept in 10 μg/ml insulin also in DMEM containing 10% FBS for 6 days (changed medium every three days). Eight days after induction of adipogenesis, test compounds in DMEM containing 10% FBS were added for an additional 2 days (changed medium every day) and PPARγ-specific antagonist GW9662 were pretreated 1 h before other additions. After two rinses with serum-free DMEM, cells were incubated for 3 h in serum-free DMEM and rinsed at room temperature three times with freshly prepared KRPH buffer (5 mM phosphate buffer, 20 mM HEPES, 1 mM MgSO4, 1 mM CaCl2, 136 mM NaCl, 4.7 mM KCl, pH 7.4). The buffer was replaced with 1 μCi/ml of [^3H]-2-deoxy-D-glucose in KRPH buffer for 10 min at room temperature. The treated cells were rinsed carefully three times with cold PBS, lysed overnight in 0.8N NaOH (0.4 ml/well), and neutralized with […] of 12N HCl. Lysate (360 μl) was added to 4 ml Scinti-Safe Plus TM 50% in a scintillation vial, and the vials were mixed and counted.\n[^3H]-2-Deoxy-D-glucose uptake assay in differentiated 3T3-L1 adipocytes. [^3H]-2-deoxy-D-glucose uptake was analyzed as previously (23). […] Cells were then rinsed three times with cold PBS, lysed overnight in 0.8 N NaOH (0.4 ml/well), neutralized with 26.6 μl of 12 N HCl and 360 μl of lysate was added into 4 ml Scinti-Safe Plus™ 50% for radioactivity determination by liquid scintillation counting."}, "[1]": {"system": "mouse RAW264.7 macrophages", "assay": "CD36 expression in macrophages (immunoblot, real-time PCR)", "conditions": "GW9662 added 1 h prior to treatment"}, "hPPARγ": {"target": "T1, hPPARγ (Homo sapiens, UniProt P37231)", "T1 construct": "For assessing full-length PPAR receptors, CV-1 cells were transiently co-transfected; expressed in transfected cells; host or cells: CV-1 cells", "T1 sequence (P37231 1-505)": "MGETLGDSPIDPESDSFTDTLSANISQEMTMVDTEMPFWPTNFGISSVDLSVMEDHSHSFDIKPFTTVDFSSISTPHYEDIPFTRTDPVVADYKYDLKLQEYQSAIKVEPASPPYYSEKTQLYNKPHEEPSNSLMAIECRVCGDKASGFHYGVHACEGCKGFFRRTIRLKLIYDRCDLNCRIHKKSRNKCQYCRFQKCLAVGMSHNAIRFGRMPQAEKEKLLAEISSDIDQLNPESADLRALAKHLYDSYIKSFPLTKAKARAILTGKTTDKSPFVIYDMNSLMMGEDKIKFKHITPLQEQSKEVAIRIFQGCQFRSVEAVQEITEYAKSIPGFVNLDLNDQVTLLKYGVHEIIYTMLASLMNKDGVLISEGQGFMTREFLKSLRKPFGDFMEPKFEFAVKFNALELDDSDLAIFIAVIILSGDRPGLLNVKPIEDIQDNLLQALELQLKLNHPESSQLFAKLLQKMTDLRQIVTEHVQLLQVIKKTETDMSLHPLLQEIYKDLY", "assay": "CV-1 PPRE×3 TK-Luciferase transient transfection assay", "format": "cell-based", "conditions": "GW9662 added 1 hr prior to nitrated fatty acid", "source_text": "Cell Transient Transfection Assay. […] Then, cells were transiently co-transfected with a plasmid containing the luciferase gene under regulation by four Gal4 DNA binding elements (UASG×4 TK-Luciferase, a gift from Dr. Ronald M. Evans), in concert with plasmids containing the ligand binding domain for the different nuclear receptors fused to the Gal4 DNA binding domain. For assessing full-length PPAR receptors, CV-1 cells were transiently co-transfected with a plasmid containing the luciferase gene under the control of three tandem PPAR response elements (PPRE) (PPRE×3 TK-Luciferase) and hPPARγ, hPPARα or hPPARδ expression plasmids, respectively. In all cases, fluorescence protein (GFP) expression plasmid was co-transfected as the control for the transfection efficiency. Twenty-four hours after the transfection, cells were cultured for another 24 hours in Optium-MEM (Invitrogen, Carlsbad, Calif.). Then, cells were treated with different compounds as indicated in figures for 24 hours in Optium-MEM. Reporter luciferase assay kits from Promega (Madison, Wis.) were used to measure the luciferase activity according to the manufacturer's instructions with a luminometer (Victor II, Perkin-Elmer). Luciferase activity was normalized by GFP units. Each condition was performed at least in triplicates in each experiment.\nPPAR transient transfection assay. […] Twelve hours before transfection, the media was removed and antibiotic-free media was applied. Cells were transiently co-transfected with a plasmid containing the luciferase gene under the control of three tandem PPAR response elements (PPRE) (PPRE×3 TK-Luciferase) and PPARγ, PPARα or PPARδ expression plasmids, respectively. In all cases, fluorescence protein (GFP) expression plasmid was co-transfected as the control for transfection efficiency. Twenty-four hours after transfection, cells the returned to OptiMEM (Invitrogen, Carlsbad, Calif.) for 24 hr and then treated as indicated for another 24 hr. Reporter luciferase assay kits from Promega (Madison, Wis.) were used to measure the luciferase activity according to the manufacturer's instructions with a luminometer (Victor II, Perkin-Elmer). Luciferase activity was normalized by GFP units. Each condition was performed in triplicate in each experiment (n>3)."}},
  "note": "“Also recorded” adds a separate entry of the source.",
  "data": [
    {"smiles": "O=C(Nc1ccccc1)c1cc([N+](=O)[O-])ccc1Cl", "note": "[GW9662, reference compound]", "values": [
      {"measurement": "effect of GW9662 on induced glucose uptake", "setting": "3T3-L1 adipocytes", "result": "partially inhibited; also recorded: significantly inhibited"},
      {"measurement": "effect of GW9662 on LNO2-induced CD36 expression", "setting": "[1]", "result": "partially inhibitable"},
      {"measurement": "effect of GW9662 on nitrated fatty acid-mediated PPARγ activation", "setting": "hPPARγ", "result": "inhibited in a dose-dependent manner; also recorded: partially inhibited; also recorded: partially yet significantly blocked"}
    ]}
  ]
}
